We go through 33 compounds from patent US20060223837A1 (priority 2005, published 2006).

Test [1] concerns the target T1, human VR1 (Homo sapiens, UniProt Q8NER1).
T1 construct: expressed in transfected cells; host or cells: HEK293
Put plainly: Human VR1 [3H]RTX binding assay. Conditions: for inhibition at 1 µM / h Binding % I (1 μM): inhibition of [3H]RTX binding at 1 μM; for inhibition at 1 µM: read-out: h Binding % I (1 μM); for Ki: [3H]RTX binding, HEK293 membranes. The essentials:
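Membranes from human VR1-transfected HEK293 cells (~120 μg protein/ml) incubated with [3H]RTX in HEPES pH 7.4 with 0.25 mg/mL BSA, 37 C, 60 min. Bound counts by scintillation after α-acid glycoprotein and centrifugation; nonspecific defined with 200 nM unlabelled RTX. Ki from duplicate means.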

The target in test [2] is T1, human VR1. Put plainly: Human VR1 functional assay (FLIPR intracellular Ca2+). The format is cell-based. Conditions: for IC50: antagonism of capsaicin-induced Ca2+ increase, read-out: h IC50; for inhibition at 10 µM / inhibition at 5 µM / inhibition at 1 µM / h % I (10 μM) / h % I (5 μM): inhibition of capsaicin response; for inhibition at 10 µM: read-out: h % I (10 μM); for inhibition at 5 µM: read-out: h % I (5 μM); for inhibition at 1 µM: read-out: h % I (1 μM); for Emax at 12 µM: read-out: % Response Relative to EC80 of Capsaicin (12 μM); for EC50: agonist-induced Ca2+ increase, read-out: h EC50; for Emax at 6 µM: read-out: % Response Relative to EC80 of Capsaicin (6 μM). Summed up: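 HEK293 cells expressing human VR1, loaded with Calcium 3 dye, were exposed to test compounds for 5 min while FLIPR recorded intracellular Ca2+, then challenged with capsaicin at ~80% maximal response ([…]). EC50 or IC50 came from dose-response curves on quadruplicate-well means.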

T1 sequence (Q8NER1 whole entry): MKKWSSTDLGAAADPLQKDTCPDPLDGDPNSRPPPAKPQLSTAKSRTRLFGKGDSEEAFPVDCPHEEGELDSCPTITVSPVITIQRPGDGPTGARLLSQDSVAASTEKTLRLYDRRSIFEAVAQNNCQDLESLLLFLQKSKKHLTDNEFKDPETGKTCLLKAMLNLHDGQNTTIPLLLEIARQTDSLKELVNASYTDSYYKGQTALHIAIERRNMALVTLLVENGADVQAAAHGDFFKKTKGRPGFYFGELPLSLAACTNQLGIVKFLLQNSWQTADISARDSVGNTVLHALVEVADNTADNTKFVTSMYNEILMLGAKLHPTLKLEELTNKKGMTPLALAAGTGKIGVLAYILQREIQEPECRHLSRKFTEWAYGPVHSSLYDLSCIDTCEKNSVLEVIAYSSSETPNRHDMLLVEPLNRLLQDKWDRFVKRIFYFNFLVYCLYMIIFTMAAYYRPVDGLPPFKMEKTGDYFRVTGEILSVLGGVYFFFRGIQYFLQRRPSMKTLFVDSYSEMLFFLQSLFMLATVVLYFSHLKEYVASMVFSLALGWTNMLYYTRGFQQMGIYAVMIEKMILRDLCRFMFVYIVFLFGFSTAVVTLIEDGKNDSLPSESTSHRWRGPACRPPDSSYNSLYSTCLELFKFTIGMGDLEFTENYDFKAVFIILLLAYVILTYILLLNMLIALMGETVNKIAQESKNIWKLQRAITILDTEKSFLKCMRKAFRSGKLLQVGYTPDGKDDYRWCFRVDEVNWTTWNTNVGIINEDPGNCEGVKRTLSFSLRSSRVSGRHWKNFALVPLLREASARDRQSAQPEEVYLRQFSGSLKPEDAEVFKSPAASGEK

By IC50 is commonly meant the point on the concentration scale where inhibition reaches its midpoint. On to `CC(C)(C)c1ccc(CCC(=O)Nc2ccccc2-c2ccc(CO)cc2)cc1` [Cpd 20], for which the inhibition at 1 µM at human VR1 [1] is 1%. For the same compound, at human VR1 [2], the IC50 was 2080 nM and the inhibition at 10 µM turned out to be 70%.

In general, Ki refers to the dissociation constant of the complex between target and ligand, obtained from inhibition or displacement. A lower Ki goes with higher affinity. For `Cc1cc(NC(=O)CCc2ccc(C(C)(C)C)cc2)cnc1-n1cnc(Cl)c1Cl` [Cpd 215], at human VR1 [1], affinity was put at a Ki of 7.4 nM. At human VR1 [2], the IC50 is 74.3 nM and the inhibition at 5 µM was found to be 100%.

The compound `Cc1cn(-c2ccc(NC(=O)/C=C/c3ccc(S(=O)(=O)C(F)(F)F)cc3)cc2C(F)(F)F)cn1` [Cpd 205, trans-N-[4-(4-Methyl-imidazol-1-yl)-3-trifluoromethyl-phenyl]-3-(4-trifluoromethanesulfonyl-phenyl)-acrylamide] yielded a Ki at human VR1 [1] of 44.4 nM. Further, on human VR1 [2], the IC50 is 38 nM and the inhibition at 1 µM came out at 100%.

Consider `CC(C)(C)c1ccc(CCC(=O)Nc2ccc(-c3ccccc3O)cc2)cc1` [Cpd 10], for which, on human VR1 [1], the Ki is 50 nM and the “h Binding % I (1 μM)” value turned out to be 89%. Besides, the “% Response Relative to EC80 of Capsaicin (12 μM)” value on human VR1 [2] (agonist response, 12 μM) was 67%. In addition, at human VR1 [2], the “h % I (10 μM)” value is 40%.

On to `CC(C)(C)c1ccc(CCC(=O)Nc2ccc(-c3ccc(O)cc3)nc2)cc1` [Cpd 133], for which, at human VR1 [1], the affinity, expressed as Ki, was 10.9 nM and the inhibition at 1 µM is 101%. The Emax at 12 µM on human VR1 [2] (agonist response, 12 μM) is 95%.

For `CC(C)(C)c1ccc(CCC(=O)Nc2ccc(-c3cccc(O)c3)cc2)cc1` [Cpd 62], the “h Binding % I (1 μM)” value at human VR1 [1] turned out to be 23%. Also, the “h % I (5 μM)” value at human VR1 [2] is given as 16%.

`O=C(CCc1ccc(C(F)(F)F)cc1)Nc1ccc(-c2ccc(O)cc2)c(C(F)(F)F)c1` [Cpd 229] came in with a Ki on human VR1 [1] of 99.2 nM. Further, at human VR1 [2], the IC50 is 195 nM and the inhibition at 5 µM amounted to 100%.

A word on the EC50: it is the midpoint of the concentration-response curve. In the case of `CC(C)(C)c1ccc(CCC(=O)Nc2ccc(-c3cccc(CN)c3)cc2)cc1` [Cpd 43], the inhibition at 1 µM on human VR1 [1] turned out to be 23%. Also, at human VR1 [2] (agonist response, 12 μM), the Emax at 12 µM was determined as 104%. At human VR1 [2], the EC50 amounted to 1660 nM.

Take `O=C(CCc1ccc(C(F)(F)F)cc1)Nc1ccc(-c2ccccc2O)cc1` [Cpd 76]: at human VR1 [1], the Ki was 421 nM and the inhibition at 1 µM came out at 50%. For the same compound, at human VR1 [2] (agonist response, 12 μM), the Emax at 12 µM came to 77%.

At human VR1 [1], `CC(C)(C)c1ccc(CCC(=O)Nc2ccc(-c3ccc(O)cc3)c(F)c2)cc1` [Cpd 101] returned a Ki of 50 nM. The Emax at 6 µM at human VR1 [2] (agonist response) came to 71%. The inhibition at 1 µM at human VR1 [2] turned out to be 95%.

Take `Cn1ccnc1-c1ccc(NC(=O)CCc2ccc(C(C)(C)C)cc2)cc1` [Cpd 189]: the “h Binding % I (1 μM)” value on human VR1 [1] is 4%. Moreover, on human VR1 [2], the “h % I (5 μM)” value was found to be 63%.

Consider `COC(=O)c1cccc(-c2ccc(NC(=O)CCc3ccc(C(C)(C)C)cc3)cc2)c1` [Cpd 29, 4′-[3-(4-tert-butyl-phenyl)-propionylamino]-biphenyl-3-carboxylic acid methyl ester], for which the inhibition at 1 µM on human VR1 [1] came to 43%. In addition, on human VR1 [2], the inhibition at 10 µM was 36%.

For `CC(C)(C)c1ccc(CCC(=O)Nc2ccc(-c3ccc(O)cc3)cc2)cc1` [Cpd 3], at human VR1 [1], affinity was put at a Ki of 51 nM and the inhibition at 1 µM stood at 90%. Further, the Emax at 12 µM on human VR1 [2] (agonist response, 12 μM) was determined as 65%. For the same compound, the inhibition at 10 µM at human VR1 [2] is 44%.

For `CC(C)(C)c1ccc(CCC(=O)Nc2ccc(-c3cccnc3)cc2)cc1` [Cpd 107], at human VR1 [1], the Ki amounted to 120 nM and the inhibition at 1 µM turned out to be 82%. Also, at human VR1 [2] (agonist response, 12 μM), the Emax at 12 µM came to 78%.

`O=C(CCc1ccc(C(F)(F)F)cc1)Nc1ccc(-c2ccc(CO)cc2)c(C(F)(F)F)c1` [Cpd 250] registered a Ki at human VR1 [1] of 199 nM. For the same compound, on human VR1 [2], the IC50 is 718 nM and the inhibition at 5 µM was determined as 100%.

At human VR1 [1], `CC(C)(C)c1ccc(CCC(=O)Nc2ccc(-c3ccc(CO)cc3)c(F)c2)cc1` [Cpd 102] returned a Ki of 39 nM. The Emax at 6 µM on human VR1 [2] (agonist response) came out at 74%. Besides, the inhibition at 1 µM on human VR1 [2] is 97%.

Turning to `CC(C)(C)c1ccc(CCC(=O)Nc2ccc(-c3cccc(O)c3)c3ccccc23)cc1` [Cpd 82], the “h Binding % I (1 μM)” value at human VR1 [1] was 28%. Further, the “h % I (5 μM)” value on human VR1 [2] was found to be 39%.

For `CC(C)(C)c1ccc(/C=C/C(=O)Nc2ccc(-c3cccc(C(N)=O)c3)cc2)cc1` [Cpd 35, 4′-[3-(4-tert-butyl-phenyl)-acryloylamino]-biphenyl-3-carboxylic acid amide], at human VR1 [1], the inhibition at 1 µM was determined as 30%. Moreover, the Emax at 12 µM on human VR1 [2] (agonist response, 12 μM) was 53%.

In the case of `CC(C)(C)c1ccc(CCC(=O)Nc2ccc(-n3cncn3)cc2)cc1` [Cpd 198], the inhibition at 1 µM on human VR1 [1] came to 37%. For the same compound, the IC50 at human VR1 [2] was 3.82 nM.

`O=C(CCc1ccc(Cl)cc1)Nc1ccc(-c2ccncc2)c(C(F)(F)F)c1` [Cpd 230] had a Ki on human VR1 [1] of 1020 nM. On human VR1 [2], the IC50 came to 202 nM and the inhibition at 5 µM was found to be 101%.

`Cc1cc(NC(=O)/C=C/c2ccc(N(C)C3CCCCC3)cc2)cnc1-n1cnc(Cl)c1Cl` [Cpd 241, trans-3-[4-(Cyclohexyl-methyl-amino)-phenyl]-N-[6-(4,5-dichloro-imidazol-1-yl)-5-methyl-pyridin-3-yl]-acrylamide] displayed a Ki at human VR1 [1] of 79.8 nM. On human VR1 [2], the IC50 was 396 nM and the inhibition at 1 µM was found to be 92%.

As for `CC(C)(C)c1ccc(CCC(=O)Nc2ccc(-c3cncnc3)cc2)cc1` [Cpd 113], at human VR1 [1], the affinity, expressed as Ki, was 324 nM and the inhibition at 1 µM came to 67%. Moreover, the Emax at 12 µM at human VR1 [2] (agonist response, 12 μM) turned out to be 101%. Besides, the half-maximal effective concentration (EC50) at human VR1 [2] was 773 nM.

Take `CC(C)(C)c1ccc(CCC(=O)Nc2ccc(-c3cccc(NCCO)c3)cc2)cc1` [Cpd 46]: the inhibition at 1 µM at human VR1 [1] amounted to 34%. For the same compound, at human VR1 [2], the IC50 worked out at 4770 nM and the inhibition at 10 µM was found to be 53%.

For `CC(C)(C)c1ccc(CCC(=O)Nc2ccc(-c3nn[nH]n3)cc2)cc1` [Cpd 199], the “h Binding % I (1 μM)” value on human VR1 [1] came to 3%. In addition, on human VR1 [2], the “h % I (5 μM)” value was 19%.

In turn, `O=C(CCc1ccccc1)Nc1ccc(-c2ccncc2)c(C(F)(F)F)c1` [Cpd 252] displayed a Ki at human VR1 [1] of 5350 nM. In addition, on human VR1 [2], the IC50 worked out at 896 nM and the inhibition at 5 µM is 100%.

`O=C(CCc1ccc(C(F)(F)F)cc1)Nc1cnc(-n2ccnc2)c(C(F)(F)F)c1` [Cpd 240]: affinity at human VR1 [1] was put at a Ki of 3850 nM. Further, at human VR1 [2], the IC50 amounted to 379 nM and the inhibition at 5 µM was 101%.

With `CC(C)(C)c1ccc(CCC(=O)Nc2ccc(-c3cccc(O)c3)cc2F)cc1` [Cpd 60], at human VR1 [1], affinity was put at a Ki of 541 nM and the inhibition at 1 µM turned out to be 52%. Moreover, the Emax at 12 µM at human VR1 [2] (agonist response, 12 μM) turned out to be 84%.

Consider `CC(C)(C)c1ccc(CCC(=O)Nc2cccc(-c3ncccn3)c2)cc1` [Cpd 116], for which the inhibition at 1 µM on human VR1 [1] worked out at 1.1%. The IC50 at human VR1 [2] is 377 nM.

Consider `CC(C)(C)c1ccc(CCC(=O)Nc2ccc(-c3cccc([N+](=O)[O-])c3)cc2)cc1` [Cpd 11], for which, on human VR1 [1], the Ki was 145 nM and the inhibition at 1 µM stood at 84%. Moreover, the inhibition at 10 µM at human VR1 [2] came to 36%.

For the compound `CC(C)(C)c1ccc(CCC(=O)Nc2ccc(-c3cccc(N)c3)cc2)cc1` [Cpd 17], at human VR1 [1], the Ki was determined as 48 nM and the inhibition at 1 µM was found to be 90%. Further, at human VR1 [2] (agonist response, 12 μM), the Emax at 12 µM was 67%.

For `O=C(CCc1ccc(C(F)(F)F)cc1)Nc1ccc(-c2ccc(O)cc2)nc1` [Cpd 148], on human VR1 [1], the Ki worked out at 98.6 nM and the inhibition at 1 µM came out at 73%. Moreover, on human VR1 [2] (agonist response, 12 μM), the Emax at 12 µM amounted to 74%.

`CC(=O)c1cccc(-c2ccc(NC(=O)CCc3ccc(C(C)(C)C)cc3)cc2)c1` [Cpd 13]: the “h Binding % I (1 μM)” value on human VR1 [1] is recorded as 35%. For the same compound, the “h % I (10 μM)” value at human VR1 [2] worked out at 35%.

Regarding `CC(C)(C)c1ccc(CCC(=O)Nc2ccccc2-c2cccnc2)cc1` [Cpd 105], the inhibition at 1 µM at human VR1 [1] was found to be 1%. Moreover, the IC50 at human VR1 [2] came out at 3950 nM.
